Results as given in PMC12615518, “Discovery of CRBN-recruiting PROTAC degraders of the METTL3-METTL14 complex” (Medicinal Chemistry Research, 2025).
Where two headings read alike, the source gives them in different places.

Legend:
METTL3 [1] = test system: METTL3; parameters: method as in PMID 32159918; details: read-out: IC50 METTL3 activity, reader-based HTRF assay; cited from earlier work
METTL14 = target: T1, METTL14 (Homo sapiens, UniProt Q9HCE5); test: Immunoblotting (Western blot) degradation of METTL14 in MV4-11 cells; format: cell-based; details: MV4-11 cells, 1 µM, 24 h, Fig. 4A right
T1 construct: Following treatment, total cellular proteins were extracted using RIPA buffer; endogenous in cells; host or cells: MV4-11 (MV4.11) human AML cells, ATCC
Experimental: (§1) All cell lines were maintained under standard conditions in a humidified atmosphere at 37 °C with 5% CO₂.
(§2) Western Blot Analysis: Following treatment, total cellular proteins were extracted using RIPA buffer (Auragene, Changsha, China). […] After washing, membranes were incubated with horseradish peroxidase (HRP)-conjugated secondary antibodies (anti-rabbit or anti-mouse IgG; 1:5000) for 2 hours at room temperature. Protein bands were visualized using an enhanced chemiluminescence (ECL) detection kit (Amersham Pharmacia), following the manufacturer's protocol. Band intensities were quantified using ImageJ software and normalized to ACTIN as a loading control. Data was analyzed using GraphPad Prism 9.

METTL3 [2] = test system: METTL3; parameters: method as in PMID 34431664; details: read-out: IC50 METTL3 inhibition, enzyme-based assays; cited from earlier work
METTL3 [3] = target: METTL3 (Homo sapiens, UniProt Q86U44); test: Immunoblotting (Western blot) degradation of METTL3 in MV4-11 cells; format: cell-based; parameters: Following treatment, total cellular proteins were extracted using RIPA buffer; endogenous in cells; host or cells: MV4-11 (MV4.11) human AML cells, ATCC; details: MV4-11 cells, 1 µM, 24 h, Fig. 4A right
Experimental: as §1, §2

METTL3/14 [4] = test system: METTL3/14; parameters: method as in PMID 33902106; details: read-out: IC50 METTL3/14 catalytic activity inhibition; cited from earlier work
METTL3/14 [5] = target: METTL3/14; parameters: method as in PMID 33902106; details: read-out: METTL3/14 binding affinity (Kd); cited from earlier work
[6] = test system: human AML patient-derived xenografts (PDX) models; parameters: method as in PMID 33902106; details: cited from earlier work
[7] = test system: primary mouse MLL-AF9/Flt3^Itd/+ model; parameters: method as in PMID 33902106; details: cited from earlier work

T1 sequence (Q9HCE5 whole entry): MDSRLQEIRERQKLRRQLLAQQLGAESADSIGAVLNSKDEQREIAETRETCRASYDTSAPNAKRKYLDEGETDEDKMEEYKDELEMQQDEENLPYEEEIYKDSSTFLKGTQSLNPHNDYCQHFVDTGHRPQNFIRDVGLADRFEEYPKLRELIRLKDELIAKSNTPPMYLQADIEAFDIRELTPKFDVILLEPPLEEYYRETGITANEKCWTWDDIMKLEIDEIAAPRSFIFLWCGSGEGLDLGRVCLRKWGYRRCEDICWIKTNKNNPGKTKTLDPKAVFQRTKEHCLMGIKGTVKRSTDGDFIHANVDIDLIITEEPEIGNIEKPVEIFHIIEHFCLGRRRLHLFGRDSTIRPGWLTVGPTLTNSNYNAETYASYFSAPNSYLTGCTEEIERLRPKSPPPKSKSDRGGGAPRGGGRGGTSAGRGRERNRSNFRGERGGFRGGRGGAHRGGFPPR
T1 sequence (Q86U44 2-580 partner): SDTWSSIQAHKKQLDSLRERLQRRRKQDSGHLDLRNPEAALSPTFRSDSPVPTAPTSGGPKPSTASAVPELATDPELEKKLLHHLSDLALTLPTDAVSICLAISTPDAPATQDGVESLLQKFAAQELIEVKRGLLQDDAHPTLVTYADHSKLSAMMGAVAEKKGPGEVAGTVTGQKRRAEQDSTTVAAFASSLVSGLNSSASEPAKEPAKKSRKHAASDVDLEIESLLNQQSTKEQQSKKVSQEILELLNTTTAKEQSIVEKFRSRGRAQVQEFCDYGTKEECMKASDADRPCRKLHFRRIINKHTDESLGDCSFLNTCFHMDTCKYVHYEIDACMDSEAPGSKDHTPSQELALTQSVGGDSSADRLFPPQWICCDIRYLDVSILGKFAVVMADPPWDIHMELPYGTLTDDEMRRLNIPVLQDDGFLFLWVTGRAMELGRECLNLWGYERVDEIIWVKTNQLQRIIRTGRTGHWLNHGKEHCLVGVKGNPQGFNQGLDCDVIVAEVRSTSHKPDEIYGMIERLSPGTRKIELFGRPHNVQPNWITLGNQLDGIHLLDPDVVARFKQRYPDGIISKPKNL
Chain of METTL3 (Homo sapiens, UniProt Q86U44) (Q86U44 2-580 limits assumed): as the sequence (Q86U44 2-580 partner) above
Chain of METTL3 (Homo sapiens, UniProt Q86U44) (Q9HCE5 whole entry partner): as the sequence (Q9HCE5 whole entry) above

For `Nc1ncnc2c1ncn2[C@@H]1O[C@H](C(=O)NCCCCN2CCCC2)[C@@H](O)[C@H]1O` [Compound 1], the IC50 (METTL3 [1]) is listed as 8700 nM.

For `CNc1cc(N2CCC3(CC2)CN(c2cc(F)c(CN4CCC(C)(C)CC4)cc2F)CC(=O)N3)ncn1` [UZH2, reference compound], the “degradation of METTL14 at 1 µM (in words)” value (METTL14) is listed as “not degraded”, the IC50 (METTL3 [2]) is listed as 5 nM and the “degradation of METTL3 at 1 µM (in words)” value (METTL3 [3]) is listed as “not degraded”.

For STM2457, the IC50 (METTL3/14 [4]) is given as 16.9 nM, the Kd (METTL3/14 [5]) is given as 1.4 nM and the anti-leukemic effect [6] is given as “anti-leukemic effect”. For the same compound, the anti-leukemic effect [7] was “anti-leukemic effect”.
